From patent publication US20060252798A1, “Metal ion chelators and therapeutic use thereof” (priority 2003, published 2006)
Where two headings read alike, the source gives them in different places.

Tests used:
[1] = test system: SK-N-MC neuroepithelioma cells; assay: 3H-thymidine incorporation by SK-N-MC cells; type: cell-based, human; conditions: 20 h incubation then 2 h label; Mean ± SD, 4 experiments
Protocol: (§1) After a 20 h incubation of the SK-N-MC cells with a selection of analogues, ^3H-thymidine, ^3H-leucine, or ^3H-uridine (1 μCi/ml) was added for 2 h at 37° C. The cells were detached from the 96 well plate using 1 mM EDTA in Ca(II)/Mg(II)-free PBS and collected and washed using a cell harvester (Tomtec Harvester 96, Linbrook, Queensland, Australia). Radioactivity was measured on a P-scintillation counter (LKB Wallace, Turku, Finland).

[2] = test system: iron regulatory proteins (IRPs); assay: IRP-RNA-binding activity, gel-retardation assay, SK-N-MC cells; type: cell-based, human; conditions: DFO 100 μM, FAC 100 μg/ml, other chelators 25 μM, 20 h (FIG. 8)
Protocol: The IRP-RNA-binding activity was then assessed by the gel-retardation assay. Aliquots of cell lysate containing 2 μg of protein were incubated with 0.1 ng (approximately 1×10^5 cpm) of ^32P-labelled riboprobe for 30 min at room temperature. Using this protocol the level of RNA added was saturating. Unprotected probe was degraded by incubation with 1 U of RNAse T1 for 10 min at room temperature. Heparin (5 mg/ml) was then added for another 10 min to exclude non-specific binding. The IRE-protein complexes were analyzed on 6% non-denaturing polyacrylamide gels. In parallel experiments, samples were treated with ferricyanide (FeCN, 5 mM) and 0.5% β-mercaptoethanol (β-ME), prior to addition of the IRE probe. This procedure results in the conversion of IRP1, whether spontaneously active or not, into an active IRE-binding form.^22

[3] = test system: MRC-5 fibroblasts; assay: MTT cellular proliferation assay, MRC-5 fibroblasts; type: cell-based, human
Protocol: (§2) The final concentration of the compounds was 0.39-50 μM. […] […] After this incubation, 0.01 mL of MTT was added to each well and the plates incubated for 2 h at 37° C. The cells were then solubilised by adding 0.1 mL of 10% SDS-50% isobutanol in 0.01 M HCl and the plates then read at 570 nm on a scanning multiwell spectrophotometer (Titertek Multiscan; Beckman Instruments Inc, California). MTT colour formation was directly proportional to the number of viable cells.
The MRC-5 cell type is a normal human lung fibroblast cell strain that is mortal and senesces after a number of passages in vitro. The SK-N-MC neuroepithelioma cell type is immortal.
(§3) Dp2mT served as a negative control.

[4] = test system: HEP G2 Hepatoma; assay: MTT cellular proliferation assay, HEP G2; type: cell-based; conditions: 0-50 μM, 72 h, 1 experiment
Protocol: as §2
(§4) At the end of the incubation period, cell density was determined by the MTT assay (described above).

[5] = test system: DU 145 prostate cancer; assay: MTT cellular proliferation assay, DU 145; type: cell-based; conditions: 0-50 μM, 72 h, 2 experiments
Protocol: as §2, §4

[6] = test system: IMR-32 Neuroblastoma; assay: MTT cellular proliferation assay, IMR-32; type: cell-based; conditions: 0-50 μM, 72 h, 1 experiment
Protocol: as §2, §4

[7] = test system: SK-Mel-28 melanoma cells; assay: MTT cellular proliferation assay, SK-Mel-28; type: cell-based, human; conditions: Table 3, 72 h, mean ± SD
Protocol: as §2, §3
(§5) Dp2mT served as a negative control as the methyl group at the 2-position hinders Fe-chelation.

[8] = test system: SK-N-MC neuroepithelioma cells; assay: 3H-leucine incorporation by SK-N-MC cells; type: cell-based, human; conditions: 20 h incubation then 2 h label; Mean ± SD, 4 experiments
Protocol: as §1

[9] = test system: M109 carcinoma cells; assay: 59Fe uptake from 59Fe-Tf by M109 cells; type: cell-based, mouse; conditions: 1 μM
Protocol: The ability of the compound Dp44mT to inhibit the growth of M109 lung carcinoma cells in mice was assessed. Studies were performed using M109 carcinoma cells in culture to determine the effect of Dp44mT on mobilising ^59Fe from these cells (FIG. 11C) and inhibiting ^59Fe uptake from ^59Fe-Tf (FIG. 11D). As internal controls, cells were incubated with DFO and 311. The effect of compound concentration on increasing ^59Fe mobilisation from M109 cells was examined by labelling cells with ^59Fe-Tf (0.75 μM) for 3 h at 37° C. followed by washing and reincubation with the respective compounds (0.2-25 μM) for 3 h at 37° C. (FIG. 11C). […] In contrast, 311 increased cellular ^59Fe release from 8±1% (control medium) to […] at 5 μM (FIG. 11C). For Dp44mT ^59Fe release plateaued at 2 μM, resulting in the efflux of 48±2% of ^59Fe (FIG. 11C).
At 1 μM, 311 reduced ^59Fe uptake to 40±4% of the control. […] Dp44mT had similar activity to 311 up to a concentration of 5 μM, where it reduced ^59Fe uptake to 30±1% of the control (FIG. 11D).

[10] = test system: NCI H2452 mesothelioma; assay: MTT cellular proliferation assay, NCI H2452; type: cell-based; conditions: 0-50 μM, 72 h, 3 experiments
Protocol: as §2, §4

[11] = test system: Ndrg1; assay: Ndrg1 expression in MCF-7 cells (Western blotting); type: cell-based, human; conditions: 25 μM, 24 h, MCF-7 cells (FIG. 16)
Protocol: FIG. 16. […] The expression of Ndrg1 and β-actin protein levels were assessed by Western blotting.
MCF-7 cells were incubated for 24 h with a range of metal ion chelators. […] Dp2mT was used as a negative control, […]

[12] = test system: SK-N-MC neuroepithelioma cells; assay: 3H-uridine incorporation by SK-N-MC cells; type: cell-based, human; conditions: 20 h incubation then 2 h label; Mean ± SD, 3 experiments
Protocol: as §1

[13] = test system: MCF-7 breast cancer cells; assay: MTT cellular proliferation assay, MCF-7; type: cell-based, human; conditions: values given in Example 8; read-out: IC50, anti-proliferative activity in MCF-7 cells
Protocol: […] […] […] After this incubation, 0.01 mL of MTT was added to each well and the plates incubated for 2 h at 37° C. The cells were then solubilised by adding 0.1 mL of 10% SDS-50% isobutanol in 0.01 M HCl and the plates then read at 570 nm on a scanning multiwell spectrophotometer (Titertek Multiscan; Beckman Instruments Inc, California). MTT colour formation was directly proportional to the number of viable cells.
as §3, §5

[14] = test system: H69AR lung cancer; assay: MTT cellular proliferation assay, H69AR; type: cell-based; conditions: 0-50 μM, 72 h, 1 experiment
Protocol: as §2, §4

[15] = test system: SK-N-MC neuroepithelioma cells; assay: MTT cellular proliferation assay, SK-N-MC; type: cell-based, human
Protocol: […] […] After this incubation, 0.01 mL of MTT was added to each well and the plates incubated for 2 h at 37° C. The cells were then solubilised by adding 0.1 mL of 10% SDS-50% isobutanol in 0.01 M HCl and the plates then read at 570 nm on a scanning multiwell spectrophotometer (Titertek Multiscan; Beckman Instruments Inc, California). MTT colour formation was directly proportional to the number of viable cells.
The effect of the compounds on the proliferation of SK-N-MC neuroepithelioma cells was examined using the MTT assay (described above).
as §3

[16] = test system: GADD45 and WAF1 mRNA; assay: Northern blot of WAF1 and GADD45 mRNA expression in SK-N-MC cells; type: cell-based, human; conditions: DFO 100 μM, other chelators 25 μM, 20 h at 37° C. (FIG. 7)
Protocol: FIG. 7. […] Northern blotting was performed using standard procedures (see Example 6).
Northern blot analysis was performed by isolating total RNA using the Total RNA Isolation Reagent (Advanced Biotechnologies Ltd, Surrey, United Kingdom). The membranes were hybridised with probes specific for human WAF1, GADD45, and β-actin. The WAF1 probe consisted of a 1 kb fragment from pSXV (ATCC; Cat. No. 79928). The GADD45 probe consisted of a 760 bp fragment from human GADD45 cDNA cloned into pHu145B2 (kindly supplied by Dr. Albert Fornace, National Cancer Institute, NIH, Maryland). The β-actin probe consisted of a 1.4 kb fragment from human β-actin cDNA cloned into pBluescript SK− (ATCC; Cat. No. 37997).

[17] = test system: SK-N-MC neuroepithelioma cells; assay: 59Fe mobilization from prelabelled SK-N-MC neuroepithelioma cells; type: cell-based, human; conditions: for 59Fe mobilisation as a function of concentration: 0.5-50 μM, 3 h, PCTH internal control (FIG. 5A)
Protocol: The effect of chelators on ^59Fe release from prelabelled cells was studied using standard procedures.^18 Cells were prelabelled with ^59Fe-transferrin (0.75 μM) for 3 h at 37° C. […] The overlying medium was then removed and placed into γ-counting tubes. The cells were removed from the petri dishes in 1 ml of BSS using a plastic spatula and transferred to a separate set of γ-counting tubes.
The ability of the compounds to mobilise ^59Fe from SK-N-MC neuroepithelioma cells was assessed after a 3 h labelling period with ^59Fe-Tf (0.75 μM) at 37° C. […]
DFO and 311 were used as internal standards.

[18] = test system: SK-N-MC neuroepithelioma cells; assay: 59Fe uptake from 59Fe-transferrin by SK-N-MC neuroepithelioma cells; type: cell-based, human; conditions: 0.5-50 μM, 3 h; PCTH internal control (FIG. 5B)
Protocol: The cells were then placed on ice and washed four times with ice-cold Hank's balanced salt solution (BSS) to remove non-specifically bound ^59Fe-Tf. Cells were then incubated with the general protease, pronase (1 mg/ml), for 30 min at 4° C. to remove membrane-bound ^59Fe and Tf.
PCTH was used as an internal control.

[19] = test system: intracellular ROS; assay: Intracellular ROS assay (DCF-DA, flow cytometry), M109 cells; type: cell-based, mouse; conditions: 50 μM, 10 min, positive control
Protocol: Intracellular ROS generation was assessed using the cell-permeable dye 2′,7′-dichlorofluorescein-diacetate (DCF-DA) (Sigma). DCF-DA readily diffuses into cells and becomes highly fluorescent when oxidised by O2^•−, H2O2, or OH^−.^29 Cellular fluorescence intensity is directly proportional to the level of intracellular ROS.^29 M109 cells (1×10^5 cells/well) were incubated with or without 1 μM Dp44mT for 0-48 h or 50 μM H2O2 (positive control) for 10 min at 37° C. The cells were then incubated with DCF-DA (5 μM) for 20 min at 37° C., washed twice, and detached from the culture plates. The fluorescence of oxidised DCF in cells was measured using flow cytometry.^29)
To test whether induction of h-cytc release from the mitochondrion (FIG. 15A) and the imbalance of Bcl-2/Bax expression (FIG. 15B) was due to the presence of ROS, intracellular ROS were measured by flow cytometry using the DCFH-DA probe which becomes fluorescent when oxidised by O2^•−, H2O2, or OH^−.^29 Incubation of M109 cells with Dp44mT (1 μM) increased the levels of oxidised probe as a function of time. After 2 h, a 25±10% increase in oxidised DCFH-DA fluorescence was found compared to the 0 h time point, and this increased to 486±96% after 48 h (FIG. 15C). For comparison, a 10 min incubation with the positive control, H2O2 (50 μM), increased fluorescence to 1312±46% of the 0 h time point (FIG. 15C)

[20] = Table 2, MTT assay, 90 h incubation, Mean ± SD, 4 experiments, read-out: IC50 Values of Chelators

| Compound | 3H-Thymidine Incorporation [1] [% Control] | IRP-RNA binding activity [2] | IC50 [5] [µM] | IC50 [6] [µM] | 3H-Leucine Incorporation [8] [% Control] | IC50 [10] [µM] | 3H-Uridine Incorporation [12] [% Control] | IC50 [14] [µM] | IC50 [15, 20] [µM] | GADD45 and WAF1 mRNA expression [16] | 59Fe mobilisation as a function of concentration [17] | prevention of 59Fe uptake as a function of concentration [18] | also measured |
| --- | --- | --- | --- | --- | --- | --- | --- | --- | --- | --- | --- | --- | --- |
| O=C(NN=Cc1c(O)ccc2ccccc12)c1ccncc1 [compound 311, 2-hydroxy-1-naphthylaldehyde isonicotinoyl hydrazone] | 0.1 ± 0.1 | increase | 1.94 | 0.3 | 2 ± 1 | 0.47 | 5 ± 2 | 0.97 | 3 ± 2 | up-regulation |  |  | IC50 ([3]; Table 3, normal cells, 72 h, MTT, read-out: IC50 MRC-5 fibroblasts): > 25 µM; IC50 [4]: 1.18 µM; IC50 [7]: 0.9 ± 0.5 µM; 59Fe uptake [9]: 40±4 % of the control; up-regulation of Ndrg1 [11]: markedly increased; IC50 [13]: 0.6 µM; IC50 ([15]; Table 3, 0-25 μM, 72 h, MTT, mean ± SD, read-out: IC50 SK-N-MC neuroepithelioma): 0.3 µM |
| O=C(NN=C(c1ccccn1)c1ccccn1)c1ccccc1 [PKBH, di-2-pyridylketone benzoyl hydrazone] | 0.03 ± 0.01 |  |  |  | 21 ± 2 |  | 5 ± 1 |  | 3 ± 1 | pronounced effect | more effective than PCTH | higher efficacy than the control PCTH | IC50 ([3]; Homo sapiens, MRC5, Example 4c, FIG. 6, read-out: IC50 values in fibroblasts): 11 µM |
| ferric ammonium citrate [FAC] |  | decreased |  |  |  |  |  |  |  |  |  |  |  |
| di-2-pyridylketone 2-thiophenecarboxaldehyde hydrazone [PKTH] | 0.04 ± 0.01 |  | 1.43 | 0.3 | 19 ± 8 | 0.73 | 5 ± 1 | 0.78 | 3 ± 1 | pronounced effect | more effective than PCTH | higher efficacy than the control PCTH | cellular 59Fe released ([17]; chelator 1 μM, 3 h reincubation at 37° C. (FIG. 5A)): 26%; IC50 ([3]; Example 4c, FIG. 6, read-out: IC50 values in fibroblasts): 16 µM |
| OO [H2O2] |  |  |  |  |  |  |  |  |  |  |  |  | fluorescence [19]: 1312±46 % of the 0 h time point |
